Active and inactive are the calls of the source.
Legend:
[1] = Luminescence Cell-Based Dose Response HTS to Identify Inhibitors of 5'UTR Stem-Loop Driven Prion Protein mRNA Translation in H4 Neuroglioblastoma Cells. [Related pubchem assays: 1827 (Project Summary), 1813 (Primary HTS)]; assay type: functional
[2] = tested on: Vero; assay: host cell cytotoxicity of antiviral hits, dose response, cytotoxicity control for West Nile virus antiviral project, secondary assay (AID 1650); assay type: functional; conditions: Chlorocebus sabaeus
[3] = inhibitors of SNCA 5'UTR-driven reporter translation, confirmation, H4 neuroglioma cells, luminescence (AID 1988); assay type: functional, cell-based
[4] = inhibitors of firefly luciferase expression or activity, dose response, H4 neuroglioma cells, luminescence (AID 1990); assay type: functional, cell-based
[5] = A cytotoxicity screen of small molecule inhibitors of the PhoP region in Salmonella typhi identified in the primary screen. [Related pubchem assays: 1850, 1864, 1985 ]; assay type: functional
[6] = molecular target: Glyceraldehyde-3-phosphate dehydrogenase (Homo sapiens, UniProt P04406)
[7] = molecular target: Estrogen receptor beta (Homo sapiens, UniProt Q92731); assay: ERβ–SRC-3 coactivator interaction inhibitors, confirmation, orthogonal assay, biochemical, ELISA, streptavidin-HRP readout (AID 1060)
[8] = molecular target: T1, Leucine aminopeptidase (Plasmodium falciparum 3D7, UniProt Q8IL11); assay: P. falciparum M17LAP inhibitors, primary screen, biochemical, fluorogenic H-Leu-NHMec substrate, 1536-well (AID 1619); assay type: functional
T1 sequence (Q8IL11 whole entry): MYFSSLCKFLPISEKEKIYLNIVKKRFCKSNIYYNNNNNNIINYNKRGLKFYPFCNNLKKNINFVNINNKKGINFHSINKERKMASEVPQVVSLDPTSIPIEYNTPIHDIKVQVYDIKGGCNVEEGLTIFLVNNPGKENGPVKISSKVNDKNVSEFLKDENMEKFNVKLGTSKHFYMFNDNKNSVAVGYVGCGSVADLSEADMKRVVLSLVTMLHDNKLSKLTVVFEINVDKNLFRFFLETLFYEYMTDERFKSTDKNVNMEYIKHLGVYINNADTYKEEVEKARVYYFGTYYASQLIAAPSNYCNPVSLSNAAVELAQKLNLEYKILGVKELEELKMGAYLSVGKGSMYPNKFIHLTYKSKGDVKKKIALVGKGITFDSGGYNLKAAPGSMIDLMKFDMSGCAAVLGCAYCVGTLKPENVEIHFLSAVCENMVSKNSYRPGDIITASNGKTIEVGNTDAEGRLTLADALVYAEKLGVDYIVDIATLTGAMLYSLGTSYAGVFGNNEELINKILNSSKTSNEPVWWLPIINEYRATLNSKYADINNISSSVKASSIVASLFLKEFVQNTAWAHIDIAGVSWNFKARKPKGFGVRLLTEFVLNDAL

[9] = molecular target: T2, DNA repair protein RAD52 homolog (Homo sapiens, UniProt P43351); assay type: functional, biochemical
T2 sequence (P43351 whole entry): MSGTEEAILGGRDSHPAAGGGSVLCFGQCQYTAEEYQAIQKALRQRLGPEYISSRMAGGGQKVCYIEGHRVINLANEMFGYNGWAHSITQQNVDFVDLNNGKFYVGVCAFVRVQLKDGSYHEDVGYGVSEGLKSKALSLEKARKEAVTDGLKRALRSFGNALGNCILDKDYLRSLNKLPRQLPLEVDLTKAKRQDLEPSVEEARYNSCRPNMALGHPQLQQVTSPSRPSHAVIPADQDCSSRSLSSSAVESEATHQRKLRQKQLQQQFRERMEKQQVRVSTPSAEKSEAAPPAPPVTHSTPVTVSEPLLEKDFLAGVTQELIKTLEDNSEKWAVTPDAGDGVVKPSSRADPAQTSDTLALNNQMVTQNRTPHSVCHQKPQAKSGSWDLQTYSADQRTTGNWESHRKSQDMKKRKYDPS

[10] = molecular target: T3, Ubiquitin-conjugating enzyme E2 N (Homo sapiens, UniProt P61088); assay type: functional;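 note: Dose-response confirmation in a TR-FRET assay detecting UBC13-driven polyubiquitin chain formation, inhibition measured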
T3 sequence (P61088 whole entry): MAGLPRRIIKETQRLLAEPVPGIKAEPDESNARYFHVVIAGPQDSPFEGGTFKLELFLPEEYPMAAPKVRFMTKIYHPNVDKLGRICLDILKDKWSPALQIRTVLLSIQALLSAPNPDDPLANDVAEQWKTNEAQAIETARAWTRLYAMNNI

[11] = molecular target: T4, Histone-lysine N-methyltransferase NSD2 (Homo sapiens, UniProt O96028); assay type: biochemical
T4 sequence (O96028 whole entry): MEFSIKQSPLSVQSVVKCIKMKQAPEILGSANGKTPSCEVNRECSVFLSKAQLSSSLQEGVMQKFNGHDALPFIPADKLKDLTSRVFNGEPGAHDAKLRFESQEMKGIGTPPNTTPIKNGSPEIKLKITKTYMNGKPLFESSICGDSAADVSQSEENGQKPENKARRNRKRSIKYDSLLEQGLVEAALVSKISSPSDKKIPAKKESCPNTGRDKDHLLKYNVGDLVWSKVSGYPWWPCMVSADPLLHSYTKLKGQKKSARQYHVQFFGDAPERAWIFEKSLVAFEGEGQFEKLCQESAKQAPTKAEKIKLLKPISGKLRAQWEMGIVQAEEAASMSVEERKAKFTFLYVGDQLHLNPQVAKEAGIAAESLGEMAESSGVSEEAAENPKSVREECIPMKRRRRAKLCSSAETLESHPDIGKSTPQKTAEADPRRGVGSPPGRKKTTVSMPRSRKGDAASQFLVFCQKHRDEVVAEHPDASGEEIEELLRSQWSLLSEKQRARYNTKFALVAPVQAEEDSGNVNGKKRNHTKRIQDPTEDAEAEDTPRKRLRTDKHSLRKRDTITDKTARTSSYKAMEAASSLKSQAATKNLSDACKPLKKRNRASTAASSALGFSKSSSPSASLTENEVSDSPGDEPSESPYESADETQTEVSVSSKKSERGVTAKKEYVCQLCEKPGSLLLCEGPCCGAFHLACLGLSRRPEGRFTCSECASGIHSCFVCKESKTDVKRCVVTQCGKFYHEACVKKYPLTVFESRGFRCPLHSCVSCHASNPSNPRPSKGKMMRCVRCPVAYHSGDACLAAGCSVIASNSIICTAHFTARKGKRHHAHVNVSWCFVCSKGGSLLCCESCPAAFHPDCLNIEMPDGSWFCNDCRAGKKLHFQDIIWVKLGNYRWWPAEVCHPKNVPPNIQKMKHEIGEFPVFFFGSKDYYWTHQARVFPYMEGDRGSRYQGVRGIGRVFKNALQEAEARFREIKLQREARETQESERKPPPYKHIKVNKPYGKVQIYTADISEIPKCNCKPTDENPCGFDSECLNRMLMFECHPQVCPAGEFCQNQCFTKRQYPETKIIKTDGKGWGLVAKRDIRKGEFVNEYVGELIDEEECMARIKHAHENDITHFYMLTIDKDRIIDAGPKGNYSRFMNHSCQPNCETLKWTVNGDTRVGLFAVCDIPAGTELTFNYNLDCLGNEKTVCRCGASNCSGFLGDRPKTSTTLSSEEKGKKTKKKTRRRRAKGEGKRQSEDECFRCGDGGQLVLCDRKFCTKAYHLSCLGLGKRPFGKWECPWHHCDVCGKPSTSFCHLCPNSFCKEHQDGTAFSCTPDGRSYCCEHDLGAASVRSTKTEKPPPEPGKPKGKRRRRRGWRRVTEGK

[12] = HEp-2 cell cytotoxicity, dose response, cytotoxicity control for RSV inhibitor project, HTS (AID 2410); assay type: functional; conditions: human respiratory syncytial virus
[13] = molecular target: T5, Polyadenylate-binding protein 1 (Homo sapiens, UniProt P11940); assay: PABP1 MLLE–PAM2 interaction inhibitors, dose response, miRNA deadenylation inhibitor project, biochemical, fluorescence polarization, Cy5-PAM2 peptide, secondary (AID 602260); assay type: functional; conditions: read-out: IC50_Mean
[14] = molecular target: T5, Polyadenylate-binding protein 1; assay: PABP1 MLLE–PAM2 binding inhibitor potency, dose response, biochemical, fluorescence polarization, FITC-PAM2 peptide (AID 602259); assay type: functional; conditions: read-out: IC50_Mean
[15] = inhibitors of clade B AD8 Env fusion, dose response, cell-based, cherry-pick (AID 652062); assay type: functional;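 note: luciferase signal from cell-cell fusion driven by HIV-1 clade B AD8 Env; potency is for inhibitors of fusion seen as a drop in luminescence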
[16] = ZM109 Env clade C HIV-1 fusion inhibitors, dose response, HeLa effector, CEM target cells, luciferase, cherry-pick (AID 652058); assay type: functional, cell-based
[17] = inhibitors of HIV Env-driven cell fusion, dose response, cherry-pick (AID 652057); assay type: functional, cell-based
[18] = off-target signal loss in HeLa-CEM21 co-culture – HeLa F-luc CTL cells, cherry-picked, counter-screen for HIV-1 Env fusion inhibitor project, dose response (AID 652040); assay type: functional, cell-based;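 note: potency for signal decrease marking cytotoxic or nonspecific inhibition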
[19] = HEK293T cytotoxicity, dose response, cytotoxicity control for miR-122 modulator project, cell-based, inhibitor set, cherry-pick, set 2 (AID 720697); assay type: functional

Chain of Estrogen receptor beta (Q92731 whole entry): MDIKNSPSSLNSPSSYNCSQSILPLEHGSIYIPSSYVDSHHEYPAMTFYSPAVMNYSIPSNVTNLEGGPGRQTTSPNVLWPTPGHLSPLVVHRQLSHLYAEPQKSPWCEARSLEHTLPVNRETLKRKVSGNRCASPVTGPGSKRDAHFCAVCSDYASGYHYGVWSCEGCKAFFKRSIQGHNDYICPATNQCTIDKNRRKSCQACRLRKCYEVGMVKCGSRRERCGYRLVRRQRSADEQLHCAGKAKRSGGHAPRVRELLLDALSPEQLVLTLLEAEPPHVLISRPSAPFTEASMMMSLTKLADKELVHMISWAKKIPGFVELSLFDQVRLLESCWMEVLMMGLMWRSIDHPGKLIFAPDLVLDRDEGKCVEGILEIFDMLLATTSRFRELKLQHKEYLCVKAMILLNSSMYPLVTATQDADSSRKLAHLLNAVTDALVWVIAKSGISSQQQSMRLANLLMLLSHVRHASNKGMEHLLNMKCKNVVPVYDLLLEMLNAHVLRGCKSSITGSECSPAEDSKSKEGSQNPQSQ
T5 sequence (P11940 whole entry): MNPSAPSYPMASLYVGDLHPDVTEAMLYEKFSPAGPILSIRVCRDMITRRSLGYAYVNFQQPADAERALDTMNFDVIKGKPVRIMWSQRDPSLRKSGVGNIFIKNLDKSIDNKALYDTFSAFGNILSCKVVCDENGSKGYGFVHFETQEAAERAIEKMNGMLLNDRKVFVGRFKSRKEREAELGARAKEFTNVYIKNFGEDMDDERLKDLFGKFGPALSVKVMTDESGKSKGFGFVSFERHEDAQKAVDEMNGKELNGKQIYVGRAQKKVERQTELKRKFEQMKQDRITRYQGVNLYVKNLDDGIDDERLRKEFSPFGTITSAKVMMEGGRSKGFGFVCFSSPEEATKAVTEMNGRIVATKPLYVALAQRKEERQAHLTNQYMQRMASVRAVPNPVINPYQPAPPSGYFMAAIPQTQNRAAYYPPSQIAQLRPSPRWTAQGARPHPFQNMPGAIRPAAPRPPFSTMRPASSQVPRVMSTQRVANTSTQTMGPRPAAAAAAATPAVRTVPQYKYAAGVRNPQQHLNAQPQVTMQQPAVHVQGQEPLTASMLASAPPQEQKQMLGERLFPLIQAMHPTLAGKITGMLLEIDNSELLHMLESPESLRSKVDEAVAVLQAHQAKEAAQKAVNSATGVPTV
Chain of Glyceraldehyde-3-phosphate dehydrogenase (P04406 whole entry): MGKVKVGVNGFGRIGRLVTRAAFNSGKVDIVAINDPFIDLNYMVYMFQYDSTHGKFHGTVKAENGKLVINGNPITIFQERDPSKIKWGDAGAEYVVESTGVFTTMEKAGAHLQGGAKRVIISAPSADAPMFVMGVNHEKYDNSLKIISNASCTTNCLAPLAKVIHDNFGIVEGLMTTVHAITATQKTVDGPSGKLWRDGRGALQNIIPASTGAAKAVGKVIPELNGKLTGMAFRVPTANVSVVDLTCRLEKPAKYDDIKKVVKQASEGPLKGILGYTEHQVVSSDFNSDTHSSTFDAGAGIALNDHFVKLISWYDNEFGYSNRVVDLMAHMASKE

Structure (SMILES): CN1CCN(c2nc3ccccc3nc2C(C#N)S(=O)(=O)c2ccccc2)CC1 (centres undefined)
- EC50 [1]: > 120 µM (not active)
- CC50 [2]: 4.16 µM (active)
- EC50 [3]: 18.8 µM (active)
- EC50 [4]: > 120 µM (not active)

Structure (SMILES): Cc1cc(C)nc(SCC(=O)Nc2sc3c(c2C#N)CCC(C)C3)n1 (centres undefined)
- EC50 [5]: > 50 µM (active)

Structure (SMILES): O=C1C(Cl)=C(N2CCN(c3ccccc3)CC2)C(=O)N1c1ccc(C(F)(F)F)cc1
- IC50 [6]: > 50 µM (inconclusive)

Structure (SMILES): CCn1cc(-c2cc(C(F)(F)F)n3nc(C(=O)O)cc3n2)c(C)n1
- IC50 [7]: 3.41 µM (not active)

Structure (SMILES): Cc1ccc(C(=O)Nc2nc(=O)n(C(=O)CC(C)C)s2)cc1
- IC50 [8]: 24.5 µM (active)

Structure (SMILES): COc1ccc(-n2cnc3c(sc4nc(N5CCOCC5)c5c(c43)CCCC5)c2=O)cc1
- EC50 [5]: > 50 µM (active)

Structure (SMILES): CN(C)CCn1cnc2c(c1=N)C(c1ccccc1)c1ccc3ccccc3c1O2 (centres undefined)
- AC50 [9]: 23.6 µM (active)
- EC50 [1]: 0.18 µM (active)
- EC50 [3]: > 120 µM (not active)
- EC50 [4]: > 120 µM (not active)
- IC50 [10]: > 20 µM (inactive)

Structure (SMILES): O=C(Nc1ccc(Cl)cc1-c1nc2ccccc2s1)c1ccco1
- CC50 [2]: 13.3 µM (active)

Structure (SMILES): CCCN(CCC)CCCN=C(S)Nc1ccc2nc(N3CCN(CC)CC3)cc(C)c2c1
- AC50 [9]: 5.26 µM (active)
- AC50 [11]: > 20 µM (inactive)

Structure (SMILES): Cc1ccc(C)c(Nc2cc(C)nc3ccccc23)c1
- CC50 [12]: 16.9 µM (active)
- EC50 [5]: > 50 µM (active)

Structure (SMILES): O=C(O)COc1ccc(Br)cc1/C=C1/SC(=O)N(CC(=O)N2CCCC2)C1=O
- IC50 [8]: 34.8 µM (active)

Structure (SMILES): Cc1nnc(N2C(=O)c3oc4ccccc4c(=O)c3C2c2ccco2)s1 (centres undefined)
- IC50 [13]: > 66 µM (inactive)
- IC50 [7]: 0.0501 µM (not active)
- IC50 [14]: > 66 µM (inactive)

Structure (SMILES): O=C(C[C@@H]1C/C=C/CC[C@@H](Cc2ccc(F)cc2)C(=O)O[C@H](c2ccccc2)CNC1=O)NCCO
- AC50 [15]: 6.44 µM (active)
- AC50 [16]: 5.4 µM (active)
- AC50 [17]: 5.18 µM (active)
- AC50 [18]: 6.16 µM (active)

Structure (SMILES): O=S1(=O)c2c(cccc2N2CCCCC2)O[C@H](COCc2ccccc2)CN1C1CC1
- AC50 [15]: 22.4 µM (active)
- AC50 [16]: 4.61 µM (active)
- AC50 [17]: 6.53 µM (active)
- AC50 [18]: 16.3 µM (active)

Structure (SMILES): COCC(=O)NC[C@H]1[C@@H](c2ccc(C3=CCCC3)cc2)[C@@H](CO)N1C(=O)C1CC1
- AC50 [19]: 9.14 µM (active)

Structure (SMILES): O=C(O)CC/C(=N/NC(=O)c1cccs1)c1ccccc1
- IC50 [8]: 36 µM (active)

Structure (SMILES): COc1ccc(Br)cc1S(=O)(=O)Nc1cnc2ccccc2c1
- IC50 [6]: > 100 µM (not active)

Reference: ChEMBL document CHEMBL1201862, “PubChem BioAssay data set” (2004)
